The values that follow come from article PMC10696402 (The Journal of Biological Chemistry, 2023).

In data set [1] the test system is CYP2C9 Phe114 substituted with Ile and Leu. The following applies: cited from earlier work.
In data set [2] the target is T1, WT CYP2C9 (Homo sapiens, UniProt P11712). As to the kind of experiment: Diclofenac 4′-hydroxylation kinetics, recombinant WT CYP2C9. The following applies: for CLint, diclofenac 4′-hydroxylation: Vmax/Km; for Km at 7 min: human, pH 7.4, Km, diclofenac 4′-hydroxylation.
Protocol: (§1) Incubations were performed in phosphate buffer (100 μl; 0.1 M, pH 7.4) and contained WT or mutant CYP2C9 protein, 3 pmol/ml. […] After preincubation at 37 °C for 5 min, reactions were initiated by the addition of NADPH (1 mM final concentration) containing MgCl2 (4 mM). Following incubation at 37 °C for 30 min, reactions were terminated by the addition of 11.6 M HClO4 (1 μl). Samples were cooled on ice and then centrifuged at 5000g, 4 °C for 10 min. An aliquot (20 μl) of the supernatant fraction was injected into the HPLC column. […] The mobile phase comprised 25 mM phosphate buffer containing 0.02% triethylamine and 5% acetonitrile (phase A) and acetonitrile (phase B), delivered at a flow rate of 1 ml/min. […] Given the favorable sensitivities of these assays, rates of metabolite formation below the lower limits of quantification may be considered negligible.
(§2) The mobile phase comprised 10 mM ammonium formate (pH 3) in 5% acetonitrile (mobile phase A) and acetonitrile (mobile phase B) delivered at a flow rate of 1 ml/min.
Kinetic data are presented as the mean (± SD) of four separate experiments. Unless otherwise stated, metabolite formation followed sigmoidal kinetics, which was confirmed by comparison of goodness-of-fit parameters from fitting rate of metabolite formation versus substrate concentration data with the equations for empirical kinetic models (Michaelis–Menten, substrate inhibition, biphasic, and positive cooperativity) using the program GraphPad Prism version 7.01 (https://www.graphpad.com, GraphPad Software, Inc). […] CLint, which reflects reaction efficiency, was calculated as Vmax/Km.
Data set [3] has as its target T2, CYP2C9 Lys206Ala mutant (Homo sapiens, UniProt P11712, K206A). As to the kind of experiment: Diclofenac 4′-hydroxylation kinetics, Lys206Ala mutant. The following applies: for CLint, diclofenac 4′-hydroxylation: Vmax/Km; for Km at 7 min: human, pH 7.4, Km, diclofenac 4′-hydroxylation.
Protocol: (§3) Mutations were confirmed by DNA sequencing using an Applied Biosystems 3130xl Genetic Analyzer with BigDye Terminator v3.1 Chemistry (Applied Biosystems).
(§4) WT and mutant CYP2C9 proteins and NADPH-CPR were coexpressed according to Boye et al. ([61]). Plasmids were transformed into E. coli DH5R competent cells and single isolated colonies were grown by shaking at 37 °C overnight in Luria-Bertani medium containing ampicillin (100 mg/L) and chloramphenicol (50 mg/L). Overnight cultures of each clone were diluted 1:100 in Terrific broth containing 0.2% Bacto Peptone (w/v), ampicillin (100 mg/L), and chloramphenicol (50 mg/L). Cells were grown at 37 °C in a rotary shaker until the absorbance at 600 nm reached 0.7, when δ-aminolevulinic acid and isopropyl-α-D-thiogalactopyroside were added to final concentrations of 0.5 mM and 1 mM, respectively. Cultures were then grown at 30 °C with shaking at 200 rpm for 24 h. Bacterial cells were harvested, and membrane fractions were prepared as described by Gillam et al. ([62]). The P450 content of bacterial membranes was quantified spectrophotometrically using established methods ([63], [64], [65]). CPR content was measured spectrophotometrically as the NADPH-cytochrome c reductase activity ([66]).
as §1, §2
(§5) Kinetic data are presented as the mean (± SD) of four separate experiments. […] CLint, which reflects reaction efficiency, was calculated as Vmax/Km.
A further data set relates to CYP2C9 homology model. The conditions noted are these: homology model based on rabbit CYP2C5 crystal structure; cited from earlier work.
Data set [4] addresses T1, WT CYP2C9. The data set can be described thus: in vitro. The conditions noted are these: pH 7.4, Km, flurbiprofen 4′-hydroxylation.
Protocol: (§6) Incubations were performed in phosphate buffer (100 μl; 0.1 M, pH 7.4) and contained WT or mutant CYP2C9 protein, 3 pmol/ml. […] After preincubation at 37 °C for 5 min, reactions were initiated by the addition of NADPH (1 mM final concentration) containing MgCl2 (4 mM). […] Samples were cooled on ice and then centrifuged at 5000g, 4 °C for 10 min. An aliquot (20 μl) of the supernatant fraction was injected into the HPLC column. […] The mobile phase comprised 25 mM phosphate buffer containing 0.02% triethylamine and 5% acetonitrile (phase A) and acetonitrile (phase B), delivered at a flow rate of 1 ml/min. […] Given the favorable sensitivities of these assays, rates of metabolite formation below the lower limits of quantification may be considered negligible.
as §5
Data set [5] deals with T2, CYP2C9 Lys206Ala mutant. The data set can be described thus: in vitro. The following applies: pH 7.4, Km, flurbiprofen 4′-hydroxylation.
Protocol: as §3, §4, §1, §5
Data set [6] has as its target T1, WT CYP2C9. The conditions noted are these: for Vmax, flurbiprofen 4′-hydroxylation / CLint, flurbiprofen 4′-hydroxylation: WT; for CLint, flurbiprofen 4′-hydroxylation: Vmax/Km.
Protocol: as §6, §5
Data set [7] addresses T2, CYP2C9 Lys206Ala mutant. The conditions noted are these: for Vmax, flurbiprofen 4′-hydroxylation / CLint, flurbiprofen 4′-hydroxylation: Lys206Ala; for CLint, flurbiprofen 4′-hydroxylation: Vmax/Km.
Protocol: as §3, §4, §1, §5
In the next data set the test system is CYP2C9. The conditions noted are these: cited from earlier work.
In data set [8] the test system is CYP2C9 Phe114 substituted with Ile and Leu. The following applies: Phe114Ile and Phe114Leu vs WT; cited from earlier work.
The target in data set [9] is T1, WT CYP2C9. The following applies: dapsone 100 μM.
Protocol: Incubations were performed in phosphate buffer (100 μl; 0.1 M, pH 7.4) and contained WT or mutant CYP2C9 protein, 3 pmol/ml. […] After preincubation at 37 °C for 5 min, reactions were initiated by the addition of NADPH (1 mM final concentration) containing MgCl2 (4 mM). Following incubation at 37 °C for 30 min, reactions were terminated by the addition of 11.6 M HClO4 (1 μl). Samples were cooled on ice and then centrifuged at 5000g, 4 °C for 10 min. An aliquot (20 μl) of the supernatant fraction was injected into the HPLC column. […] The mobile phase comprised 25 mM phosphate buffer containing 0.02% triethylamine and 5% acetonitrile (phase A) and acetonitrile (phase B), delivered at a flow rate of 1 ml/min.
The mobile phase comprised 10 mM ammonium formate (pH 3) in 5% acetonitrile (mobile phase A) and acetonitrile (mobile phase B), delivered at a flow rate of 1 ml/min. The initial mobile phase composition was 80% mobile phase A and 20% mobile phase B, which was delivered for 8 min. After this time, the proportion of mobile phase B was increased to 70% over 0.1 min, and then held for 2 min before returning to the initial conditions.
Kinetic data are presented as the mean (± SD) of four separate experiments. Unless otherwise stated, metabolite formation followed sigmoidal kinetics, which was confirmed by comparison of goodness-of-fit parameters from fitting rate of metabolite formation versus substrate concentration data with the equations for empirical kinetic models (Michaelis–Menten, substrate inhibition, biphasic, and positive cooperativity) using the program GraphPad Prism version 7.01 (https://www.graphpad.com, GraphPad Software, Inc).
The test system of the next data set is recombinant CYP2C9. The conditions noted are these: cited from earlier work.
For data set [10] the following is noted: healthy volunteers; cited from earlier work.
Data set [11] relates to CYP3A. The following applies: semisimultaneous administration of efavirenz; cited from earlier work.
In another data set the test system is CYP3A4. More on the design: method as in PMID 19752211. The conditions noted are these: coadministration of gefitinib, CYP3A4-humanized mice; cited from earlier work.
Data set [12] relates to CYP3A. The following applies: monkeys coadministered quinidine; cited from earlier work.
Setting [13] is: Lys206Ala vs WT CYP2C9, − dapsone.

Several values for one entry are separate records, joined by “and”; a condition that tells them apart may be missing. Equal values may be shown once. Entries after “also recorded” stand apart in the source; their conditions may differ. Read-outs that look alike come from different tables or passages of the source.

Turning to `O=C(O)Cc1ccccc1Nc1c(Cl)cccc1Cl` [Diclofenac, diclofenac], the “reduction of CLint for diclofenac 4′-hydroxylation (abolished or reduced)” value in data set [1] is listed as not below 89%. Further, the “Vmax, diclofenac 4′-hydroxylation” value on WT CYP2C9 [2] (+ dapsone 100 μM) is 3.19 ± 0.09 pmol/min/pmol P450; at WT CYP2C9 [2] (− dapsone) it was 5.20 ± 0.13 pmol/min/pmol P450; on CYP2C9 Lys206Ala mutant [3] (+ dapsone 100 μM) it was 4.41 ± 0.12 pmol/min/pmol P450; at CYP2C9 Lys206Ala mutant [3] (− dapsone) it was 6.53 ± 0.19 pmol/min/pmol P450. In addition, the “CLint, diclofenac 4′-hydroxylation” value on WT CYP2C9 [2] (+ dapsone 100 μM) came out at 1.99 ± 0.17 μL/min/pmol P450; on WT CYP2C9 [2] (− dapsone), 2.39 ± 0.16 μL/min/pmol P450; on CYP2C9 Lys206Ala mutant [3] (+ dapsone 100 μM), 1.81 ± 0.07 μL/min/pmol P450; at CYP2C9 Lys206Ala mutant [3] (− dapsone), 1.64 ± 0.10 μL/min/pmol P450. Moreover, the Km (commonly the concentration of substrate that gives half-maximal velocity) at 7 min on WT CYP2C9 [2] (+ dapsone 100 μM) came out at 1.6 ± 0.15 µM; at WT CYP2C9 [2] (− dapsone) it was 2.18 ± 0.16 µM; on CYP2C9 Lys206Ala mutant [3] (+ dapsone 100 μM), 2.45 ± 0.13 µM; at CYP2C9 Lys206Ala mutant [3] (− dapsone), 4.05 ± 0.35 µM.
On to `C[C@H](C(=O)O)c1ccc(-c2ccccc2)c(F)c1` [Flurbiprofen, S-flurbiprofen], for which the “estimate of the shift in the SOM–heme Fe distance of flurbiprofen with dapsone” value in the data set on CYP2C9 homology model is recorded as 0.5 Å. Also, the Km at 30 min at WT CYP2C9 [4] (+ dapsone 100 μM) came to 5.6 ± 0.31 µM; at WT CYP2C9 [4] (− dapsone, mean ± SD, four experiments), 12.4 ± 0.44 µM; on CYP2C9 Lys206Ala mutant [5] (+ dapsone 100 μM) it was 6.6 ± 0.3 µM; on CYP2C9 Lys206Ala mutant [5] (− dapsone), 16.2 ± 0.6 µM. The “Vmax, flurbiprofen 4′-hydroxylation” value at WT CYP2C9 [6] (+ dapsone 100 μM) was 5.30 ± 0.09 pmol/min/pmol P450; on WT CYP2C9 [6] (− dapsone, mean ± SD), 5.05 pmol/min/pmol P450 and 5.05 ± 0.08 pmol/min/pmol P450; on CYP2C9 Lys206Ala mutant [7] (+ dapsone 100 μM), 4.27 ± 0.11 pmol/min/pmol P450; at CYP2C9 Lys206Ala mutant [7] (− dapsone), 3.21 ± 0.14 pmol/min/pmol P450. Further, the “CLint, flurbiprofen 4′-hydroxylation” value at WT CYP2C9 [6] (+ dapsone 100 μM) stood at 0.946 ± 0.033 μL/min/pmol P450; on WT CYP2C9 [6] (− dapsone), 0.407 ± 0.01 μL/min/pmol P450; at CYP2C9 Lys206Ala mutant [7] (+ dapsone 100 μM), 0.66 ± 0.03 μL/min/pmol P450; on CYP2C9 Lys206Ala mutant [7] (− dapsone), 0.20 ± 0.01 μL/min/pmol P450. In addition, the “Km for flurbiprofen 4′-hydroxylation, higher than WT” value at CYP2C9 Lys206Ala mutant [7] (setting [13]) came to 30%. For the same molecule, the “Vmax for flurbiprofen 4′-hydroxylation, lower than WT” value on CYP2C9 Lys206Ala mutant [7] (setting [13]) came to 37%. In addition, the “intrinsic clearance (CLint) of flurbiprofen 4′-hydroxylation, lower than WT” value on CYP2C9 Lys206Ala mutant [7] (setting [13]) is on record as “approximately 50%”. Besides, in the data set on CYP2C9 (T1 relaxation rates by NMR), the “shift of the 4′-proton of flurbiprofen nearer to the heme Fe in the presence of dapsone” value was 0.9 Å. For the same molecule, in the data set with CYP2C9, the “increase in binding affinity of flurbiprofen in the presence of dapsone” value is given as “approximately 60%”.
On to `CC(=O)C[C@@H](c1ccccc1)c1c(O)c2ccccc2oc1=O` [S-warfarin], for which the “reduction of CLint for S-warfarin 7-hydroxylation (abolished or reduced)” value in data set [8] is on record as not below 89%.
Turning to `Nc1ccc(S(=O)(=O)c2ccc(N)cc2)cc1` [dapsone], on WT CYP2C9 [9], the “decrease in the Km for naproxen demethylation by dapsone” value is 70%, the “increase in Vmax of naproxen demethylation by dapsone” value was 4.8 fold and the “increase in catalytic efficiency (CLint) of naproxen O-demethylation by dapsone” value stood at 16.5 fold. Besides, the “increase in Vmax of flurbiprofen 4′-hydroxylation by dapsone” value in the data set on recombinant CYP2C9 (WT CYP2C9, earlier study) is recorded as approximately 60%. In the data set with recombinant CYP2C9 (flurbiprofen 4′-hydroxylation, naproxen O-demethylation, piroxicam 5′-hydroxylation, confirmed here with naproxen (data not shown)), the “dapsone concentration giving maximum activation” value was 100 µM. The “increase in flurbiprofen exposure on coadministration of dapsone” value in data set [10] was 10%. Further, on WT CYP2C9 [6] (WT CYP2C9, dapsone 100 μM), the “effect of dapsone on Vmax of flurbiprofen 4′-hydroxylation” value is given as “unaffected; also recorded: without significantly affecting”, the “increase in catalytic efficiency (CLint) of flurbiprofen 4′-hydroxylation by dapsone” value is 2.3 fold and the “reduction in the Km for flurbiprofen 4′-hydroxylation by dapsone” value was approximately 60%.
In the case of `O=C1Nc2ccc(Cl)cc2[C@@](C#CC2CC2)(C(F)(F)F)O1` [efavirenz], the “increase in apparent oral clearance of midazolam” value with CYP3A [11] is 70%.
Consider `COc1cc2ncnc(Nc3ccc(F)c(Cl)c3)c2cc1OCCCN1CCOCC1` [gefitinib], for which, in the data set on CYP3A4, the “effect on triazolam exposure” value was “significantly reduce”.
`C=C[C@H]1C[N@@]2CC[C@H]1C[C@@H]2[C@@H](O)c1ccnc2ccc(OC)cc12` [quinidine]: in the data set with CYP3A [12], the “decrease in steady-state plasma concentrations of diclofenac” value is on record as “approximately 50%”.
